Test [1] has as its target T1, catalytic domain (JH1, amino acids 826-1132) of human JAK2 (Homo sapiens, UniProt O60674).
T1 construct: catalytic domain (JH1, amino acids 826-1132) of human JAK2; FLAG (N); biotin (biotinylated); purchased Carna Biosciences 08-445-20N; host or cells: baculovirus expression system
The test is described as follows: JAK2 LanthaScreen JH1 Binding Assay. The note with it: JAK2 JH1 1.5 nM, 50 nM tracer, 2 hours at 25° C.; read-out: JH1 BIND. In a few lines: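 FLAG-tagged, biotinylated JAK2 JH1 (aa 826-1132, baculovirus-expressed; 1.5 nM) incubated 2 h at 25° C with compounds, 50 nM fluorescent tracer and 0.5 nM Streptavidin-Tb in Tris pH 7.5 buffer with MgCl2, Brij-35, BSA, EGTA, glycerol, DTT. Nonspecific binding defined with 2 mM ATP; TR-FRET IC50 from four-parameter fit.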

For test [2], the target named is T2, pseudo-kinase domain (JH2, amino-acids 536-812) of human Wild Type JAK2 (Homo sapiens, UniProt O60674, F794H/W659A/W777A).
T2 construct: pseudo-kinase domain (JH2, amino-acids 536-812 with 3 surface mutations W659A, W777A, F794H); His (C); purchased BPS Bioscience 79463; host or cells: baculovirus expression system
T2 sequence (O60674 536-812 W659A/W777A/F794H): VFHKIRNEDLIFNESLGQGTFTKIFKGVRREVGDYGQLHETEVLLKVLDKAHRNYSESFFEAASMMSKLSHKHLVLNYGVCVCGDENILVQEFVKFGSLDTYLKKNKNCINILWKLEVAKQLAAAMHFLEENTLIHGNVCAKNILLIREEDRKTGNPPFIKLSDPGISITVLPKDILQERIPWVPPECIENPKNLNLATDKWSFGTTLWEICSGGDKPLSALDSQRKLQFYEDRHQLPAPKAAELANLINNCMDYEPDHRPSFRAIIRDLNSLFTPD
In words: JAK2 LanthaScreen JH2-WT Binding Assay. Particulars: JAK2 JH2-WT 0.145 nM, 50 nM tracer, 1 hour at 25° C.; read-out: JH2 BIND WT. In a few lines:
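IC50 values derive from four-parameter fits of LanthaScreen signal, measuring displacement of 50 nM fluorescent tracer from 0.145 nM biotinylated, baculovirus-expressed JH2 (536-812) detected by 0.25 nM streptavidin-Tb. Incubation lasts 1 hour at 25° C, pH 7.5.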

For test [3], the target named is catalytic domain (JH1, amino acids 808-1132) of human JAK2 (Homo sapiens, UniProt O60674). The test is described as follows: JAK2 HTRF Enzyme Activity Assay. The note with it: ATP 30 µM, 60 minutes at 25° C.; read-out: V617F ENZ 30 UM. In kind it is biochemical.
Sequence of catalytic domain (JH1, amino acids 808-1132) of human JAK2 (O60674 808-1132 limits assumed): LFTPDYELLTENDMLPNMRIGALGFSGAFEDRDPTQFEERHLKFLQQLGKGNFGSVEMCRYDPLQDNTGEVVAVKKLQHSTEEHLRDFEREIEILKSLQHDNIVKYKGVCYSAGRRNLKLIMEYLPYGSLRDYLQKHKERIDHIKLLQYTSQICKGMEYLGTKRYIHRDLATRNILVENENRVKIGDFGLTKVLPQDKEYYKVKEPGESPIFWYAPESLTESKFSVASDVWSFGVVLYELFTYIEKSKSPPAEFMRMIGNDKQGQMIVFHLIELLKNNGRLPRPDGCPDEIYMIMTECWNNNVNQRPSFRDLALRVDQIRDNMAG
Test [4] concerns the target T3, pseudo-kinase domain (JH2, amino-acids 536-812) of human V617F mutant JAK2 (Homo sapiens, UniProt O60674, F794H/V617F/W659A/W777A).
T3 construct: pseudo-kinase domain (JH2, amino-acids 536-812 with 3 surface mutations W659A, W777A, F794H); His (C); purchased BPS Bioscience 79498; host or cells: baculovirus expression system
In words: JAK2 LanthaScreen JH2-V617F Binding Assay. Particulars: JAK2 JH2-V617F 0.26 nM, 50 nM tracer, 1 hour at 25° C.; read-out: JH2 BIND V617F. Summed up:
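Biotinylated His-Avi-tagged construct, baculovirus-expressed, at 0.26 nM; compounds competed against 50 nM fluorescent JH2 tracer with 0.25 nM streptavidin-Tb in Tris pH 7.5 buffer. Non-specific binding defined with 2 mM ATP. Read after 1 h at 25° C by TR-FRET; IC50 from four-parameter fit.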

From patent publication US20240317744A1, “Bicyclic Ureas As Kinase Inhibitors” (Incyte Corporation, priority 2023, published 2024) come the findings set out here.

Some results are limits rather than exact numbers.

T3 sequence (O60674 536-812 V617F/W659A/W777A/F794H): as the sequence (O60674 536-812 W659A/W777A/F794H) above, with V82F counted along it
T1 sequence (O60674 826-1132): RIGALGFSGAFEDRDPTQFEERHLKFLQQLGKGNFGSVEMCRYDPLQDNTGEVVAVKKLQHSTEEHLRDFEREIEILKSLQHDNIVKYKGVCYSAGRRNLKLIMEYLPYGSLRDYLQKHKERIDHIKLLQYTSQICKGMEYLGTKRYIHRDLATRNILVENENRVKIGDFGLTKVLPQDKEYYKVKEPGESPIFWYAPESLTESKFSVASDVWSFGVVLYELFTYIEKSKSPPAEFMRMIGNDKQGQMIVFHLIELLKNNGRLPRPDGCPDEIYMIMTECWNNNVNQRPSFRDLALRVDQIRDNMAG

Consider `[2H]C([2H])([2H])n1c(=O)n([C@@H]2CC[C@@H](NC(=O)OC)C2)c2cc(Nc3cc(CNC4CCCC4)cc(-c4ccc5c(c4)OCCO5)n3)ncc21` [Example 65, Methyl ((1R,3R)-3-(6-((4-((cyclopentylamino)methyl)-6-(2,3-dihydrobenzo[b][1,4]dioxin-6-yl)pyridin-2-yl)amino)-3-(methyl-d3)-2-oxo-2,3-dihydro-1H-imidazo[4,5-c]pyridin-1-yl)cyclopentyl)carbamate], for which the IC50 is greater than 1000 nM in test [1], no more than 10 nM in test [2], greater than 1000 nM in test [3] and no more than 10 nM in test [4].
Consider `COC(=O)N[C@@H]1CC[C@@H](n2c(=O)n(C)c3cnc(Nc4cc(-c5cnn(C)c5)cc(-c5cccc(C#N)c5)n4)cc32)C1` [Example 51, Methyl ((1R,3R)-3-(6-((6-(3-cyanophenyl)-4-(1-methyl-1H-pyrazol-4-yl)pyridin-2-yl)amino)-3-methyl-2-oxo-2,3-dihydro-1H-imidazo[4,5-c]pyridin-1-yl)cyclopentyl)carbamate], for which the IC50 in test [1] is greater than 1000 nM; in test [2], no more than 10 nM; in test [3] it was greater than 1000 nM; in test [4], 10 to 100 nM.
As to `COC(=O)N[C@@H]1CC[C@@H](n2c(=O)n(C)c3cnc(Nc4cccc(-c5ccc(CO)c(C)c5)n4)cc32)C1` [Example 4, Methyl ((1R,3R)-3-(6-((6-(4-(hydroxymethyl)-3-methylphenyl)pyridin-2-yl)amino)-3-methyl-2-oxo-2,3-dihydro-1H-imidazo[4,5-c]pyridin-1-yl)cyclopentyl)carbamate], the IC50 in test [1] was greater than 1000 nM; in test [2] it was no more than 10 nM; in test [3] it was greater than 1000 nM; in test [4], no more than 10 nM.
For `COC(=O)N[C@@H]1CC[C@@H](n2c(=O)n(C)c3cnc(Nc4cccc(C(=O)N5CCCCC5)n4)cc32)C1` [Example 86, Methyl ((1R,3R)-3-(3-methyl-2-oxo-6-((6-(piperidine-1-carbonyl)pyridin-2-yl)amino)-2,3-dihydro-1H-imidazo[4,5-c]pyridin-1-yl)cyclopentyl)carbamate], the IC50 in test [1] was greater than 1000 nM; in test [2] it was 10 to 100 nM; in test [3] it was greater than 1000 nM; in test [4], 100 to 500 nM.
Take `COC(=O)N[C@@H]1CC[C@@H](n2c(=O)n(C)c3cnc(Nc4cc(NC(=O)C5CCC5)cc(C5CCOCC5)c4)cc32)C1` [Example 19, Methyl ((1R,3R)-3-(6-((3-(cyclobutanecarboxamido)-5-(tetrahydro-2H-pyran-4-yl)phenyl)amino)-3-methyl-2-oxo-2,3-dihydro-1H-imidazo[4,5-c]pyridin-1-yl)cyclopentyl)carbamate]: the IC50 in test [1] was greater than 1000 nM; in test [2] it was no more than 10 nM; in test [3] it was greater than 1000 nM; in test [4], no more than 10 nM.
Turning to `Cn1cc(-c2cc(NC(=O)OC3CCC3)cc(Nc3cc4c(cn3)n(C)c(=O)n4[C@@H]3CC[C@@H](NC(=O)OC4CCOCC4)C3)c2)cn1` [Example 48, Tetrahydro-2H-pyran-4-yl ((1R,3R)-3-(6-((3-((cyclobutoxycarbonyl)amino)-5-(1-methyl-1H-pyrazol-4-yl)phenyl)amino)-3-methyl-2-oxo-2,3-dihydro-1H-imidazo[4,5-c]pyridin-1-yl)cyclopentyl)carbamate], the IC50 in test [1] is greater than 1000 nM; in test [2], 10 to 100 nM; in test [3], greater than 1000 nM; in test [4], 10 to 100 nM.
`COC(=O)N[C@@H]1CC[C@@H](n2c(=O)n(C)c3cnc(Nc4ccc(F)c(-c5ccc(C6CC6)cc5)n4)cc32)C1` [Example 72, Methyl ((1R,3R)-3-(6-((6-(4-cyclopropylphenyl)-5-fluoropyridin-2-yl)amino)-3-methyl-2-oxo-2,3-dihydro-1H-imidazo[4,5-c]pyridin-1-yl)cyclopentyl)carbamate]: the IC50 is greater than 1000 nM in test [1], no more than 10 nM in test [2], greater than 1000 nM in test [3] and 10 to 100 nM in test [4].
As for `[2H]C([2H])([2H])n1c(=O)n([C@@H]2CC[C@@H](NC(=O)OC)C2)c2cc(Nc3ccnc(-c4ccnc(OC)c4)n3)ncc21` [Example 75, Methyl ((1R,3R)-3-(6-((2-(2-methoxypyridin-4-yl)pyrimidin-4-yl)amino)-3-(methyl-d3)-2-oxo-2,3-dihydro-1H-imidazo[4,5-c]pyridin-1-yl)cyclopentyl)carbamate], the IC50 was greater than 1000 nM in test [1], no more than 10 nM in test [2], greater than 1000 nM in test [3] and no more than 10 nM in test [4].
For `[2H]C([2H])([2H])n1c(=O)n([C@@H]2CC[C@@H](NC(=O)OC)C2)c2cc(Nc3ccc(OC)c(-c4ncc(C(F)(F)F)s4)n3)ncc21` [Example 98, Methyl ((1R,3R)-3-(6-((5-methoxy-6-(5-(trifluoromethyl)thiazol-2-yl)pyridin-2-yl)amino)-3-(methyl-d3)-2-oxo-2,3-dihydro-1H-imidazo[4,5-c]pyridin-1-yl)cyclopentyl)carbamate], the IC50 is greater than 1000 nM in test [1], no more than 10 nM in test [2], greater than 1000 nM in test [3] and no more than 10 nM in test [4].
For `COC(=O)N[C@@H]1CC[C@@H](n2c(=O)n(C)c3cnc(Nc4ccnc(NC5CCC(F)(F)C5)n4)cc32)C1` (stereo partly drawn) [Example 83, Methyl ((1R,3R)-3-(6-((2-((3,3-difluorocyclopentyl)amino)pyrimidin-4-yl)amino)-3-methyl-2-oxo-2,3-dihydro-1H-imidazo[4,5-c]pyridin-1-yl)cyclopentyl)carbamate], the IC50 in test [1] was greater than 1000 nM; in test [2], no more than 10 nM; in test [3], greater than 1000 nM; in test [4] it was 10 to 100 nM.
Regarding `[2H]C([2H])([2H])n1c(=O)n([C@@H]2CC[C@@H](NC(=O)OC)C2)c2cc(Nc3cc(C(=O)N4CCOCC4)cc(-c4ccc(C(F)F)s4)n3)ncc21` [Example 104, Methyl ((1R,3R)-3-(6-((6-(5-(difluoromethyl)thiophen-2-yl)-4-(morpholine-4-carbonyl)pyridin-2-yl)amino)-3-(methyl-d3)-2-oxo-2,3-dihydro-1H-imidazo[4,5-c]pyridin-1-yl)cyclopentyl)carbamate], the IC50 in test [1] was greater than 1000 nM; in test [2], no more than 10 nM; in test [3] it was 500 to 1000 nM; in test [4] it was no more than 10 nM.
As to `COC(=O)N[C@@H]1CC[C@@H](n2c(=O)n(C)c3cnc(Nc4ccnc(NC5CCOCC5)n4)cc32)C1` [Example 85, Methyl ((1R,3R)-3-(3-methyl-2-oxo-6-((2-((tetrahydro-2H-pyran-4-yl)amino)pyrimidin-4-yl)amino)-2,3-dihydro-1H-imidazo[4,5-c]pyridin-1-yl)cyclopentyl)carbamate], the IC50 was greater than 1000 nM in test [1], 10 to 100 nM in test [2], greater than 1000 nM in test [3] and 10 to 100 nM in test [4].
In the case of `[2H]C([2H])([2H])n1c(=O)n([C@@H]2CC[C@@H](NC(=O)OC)C2)c2cc(Nc3cc(CO)nc(-c4ccc(C(F)F)s4)n3)ncc21` [Example 103, Methyl ((1R,3R)-3-(6-((2-(5-(difluoromethyl)thiophen-2-yl)-6-(hydroxymethyl)pyrimidin-4-yl)amino)-3-(methyl-d3)-2-oxo-2,3-dihydro-1H-imidazo[4,5-c]pyridin-1-yl)cyclopentyl)carbamate], the IC50 in test [1] was greater than 1000 nM; in test [2], no more than 10 nM; in test [3] it was greater than 1000 nM; in test [4] it was no more than 10 nM.
